{"source": "patent US20070015834A1", "about": "(priority 2005, published 2007)", "test": "Small volume in vitro release test in 50 ml 0.1N HCl (model of fasted stomach)", "assay_type": "physicochemical", "conditions": "37° C., 150 rpm", "procedure": "The formulations were tested for their small volume in vitro release characteristics in 50 ml 0.1N HCl at 37° C. and 150 rpm using the following procedure: III. Instrumentation (or Equivalent) a. Automated Dissolution System comprising of: Hanson SR8 Plus Test Station Hanson Auto Plus Maximiser System Controller Hanson Auto Plus MultiFill Fraction Collector b. HPLC System comprising of: pump—Merck Hitachi L-7100 autoinjector—Merck Hitachi L-7200 column oven—Merck Hitachi L-7300 detector—Merck Hitachi L-7400 interface and integration software—Merck Hitachi D-7000\n0.1N HCl Preparation Dilute 8.5 ml HCl 37% to 1 liter with purified water. Procedure Place one weighed capsule in each vessel containing 0.1N HCl and immediately operate the apparatus for 30 min. Unless otherwise specified, 3 ml samples are withdrawn from each vessel and immediately filtered through PTFE membranes at 15 and 30 min.\nThe small volume was chosen as a model of the conditions in a fasted stomach."}
{"smiles": "CC(C)OC(=O)C(C)(C)Oc1ccc(C(=O)c2ccc(Cl)cc2)cc1", "note": "[Micronized Fenofibrate]", "values": [{"measurement": "dissolution in 50 ml 0.1N HCl (in words)", "value": "no dissolution at all"}, {"measurement": "% dissolved 15 min", "setting": "15 min", "value": 0, "unit": "%"}, {"measurement": "% dissolved 30 min", "setting": "30 min", "value": 0, "unit": "%"}]}
